Data: patent publication US9745310B2 (SK BIOPHARMACEUTICALS CO., LTD., priority 2015, dated 2017)

Target: human mGluR5 receptor (Homo sapiens (Human), UniProt P41594)
Assay: Calcium influx assay based on fluorescence (mGluR5 PAM activity)
Settings: human mGluR5 receptor-overexpressed HEK293 cell line; L-glutamate EC20; Fluo-4, FLIPR
In short: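 HEK293 cells overexpressing human mGluR5, loaded 1 h with Fluo-4 at 37° C. Compounds (10 μM to 10 nM final, 0.1–0.2% DMSO) added with an EC20 concentration of L-glutamate, and Ca2+ response read by FLIPR at room temperature. Activity scaled as 0% for EC20 glutamate alone and 100% for glutamate maximum.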

Chain of human mGluR5 receptor (P41594 21-1212): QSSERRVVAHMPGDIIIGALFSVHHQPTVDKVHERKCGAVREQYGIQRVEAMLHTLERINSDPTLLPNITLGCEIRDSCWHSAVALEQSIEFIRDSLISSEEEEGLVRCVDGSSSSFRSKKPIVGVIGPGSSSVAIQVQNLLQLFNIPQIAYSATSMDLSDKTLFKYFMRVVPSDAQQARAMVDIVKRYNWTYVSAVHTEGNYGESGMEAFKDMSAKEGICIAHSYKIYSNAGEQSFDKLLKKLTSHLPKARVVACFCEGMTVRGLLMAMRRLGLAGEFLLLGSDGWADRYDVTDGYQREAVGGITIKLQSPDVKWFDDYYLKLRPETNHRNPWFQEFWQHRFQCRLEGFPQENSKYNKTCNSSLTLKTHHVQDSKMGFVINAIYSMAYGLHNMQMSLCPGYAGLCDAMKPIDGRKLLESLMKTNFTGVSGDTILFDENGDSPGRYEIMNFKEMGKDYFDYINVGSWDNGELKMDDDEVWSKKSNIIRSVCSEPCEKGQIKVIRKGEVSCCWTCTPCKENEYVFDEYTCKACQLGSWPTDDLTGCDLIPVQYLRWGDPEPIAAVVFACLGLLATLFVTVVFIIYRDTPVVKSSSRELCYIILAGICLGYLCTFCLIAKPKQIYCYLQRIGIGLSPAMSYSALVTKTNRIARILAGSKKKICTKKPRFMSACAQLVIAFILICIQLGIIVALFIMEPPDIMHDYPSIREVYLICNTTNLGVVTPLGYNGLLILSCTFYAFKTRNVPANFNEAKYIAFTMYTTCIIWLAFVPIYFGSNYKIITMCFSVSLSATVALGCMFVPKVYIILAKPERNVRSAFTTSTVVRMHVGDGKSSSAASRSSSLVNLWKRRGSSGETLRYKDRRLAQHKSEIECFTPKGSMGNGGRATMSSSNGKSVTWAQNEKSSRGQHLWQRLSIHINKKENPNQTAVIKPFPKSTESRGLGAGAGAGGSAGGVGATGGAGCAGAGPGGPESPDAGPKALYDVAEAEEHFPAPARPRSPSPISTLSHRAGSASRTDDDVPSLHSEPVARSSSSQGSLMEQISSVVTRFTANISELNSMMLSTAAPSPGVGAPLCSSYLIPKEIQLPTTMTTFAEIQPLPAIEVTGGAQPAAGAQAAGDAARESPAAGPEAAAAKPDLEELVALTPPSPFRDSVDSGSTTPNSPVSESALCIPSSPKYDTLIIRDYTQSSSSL

Row | SMILES | EC50
1 | Fc1ccc(-c2cnc3nc(COc4ccncc4)cn3c2)c(F)c1 [Example 152, 6-(2,4-difluorophenyl)-2-(pyridin-4-yloxymethyl)imidazo[1,2-a]pyrimidine] | 0.1 to 0.5 µM
2 | Fc1ccnc(OCc2cn3cc(-c4ccc(F)cc4F)cnc3n2)c1 [Example 120, 6-(2,4-difluorophenyl)-2-[(4-fluoro-2-pyridyl)oxymethyl)imidazo[1,2-a]pyrimidine] | 0.1 to 0.5 µM
3 | OCc1cc(F)ccc1-c1cnc2nc(COc3cccc(F)c3)cn2c1 [Example 96, [5-fluoro-2-[2-[(3-fluorophenoxy)methyl]imidazo[1,2-a]pyrimidin-6-yl]phenyl]methanol] | 0.1 to 0.5 µM
4 | Fc1ccc(-c2cnc3nc(COc4cccc(F)c4)cn3c2)nc1 [Example 93, 2-[(3-fluorophenoxy)methyl]-6-(5-fluoro-2-pyridyl)imidazo[1,2-a]pyrimidine] | 0.1 to 0.5 µM
5 | COc1cc(Cl)ccc1-c1cnc2nc(COc3ccccc3)cn2c1 [Example 22, 6-(4-chloro-2-methoxyphenyl)-2-phenoxymethylimidazo[1,2-a]pyrimidine] | 0.5 to 1 µM
6 | COc1cc(Cl)ccc1-c1cnc2nc(COc3ccccn3)cn2c1 [Example 111, 6-(4-chloro-2-methoxyphenyl)-2-(pyridin-2-yloxymethyl)imidazo[1,2-a]pyrimidine] | 0.1 to 0.5 µM
7 | FC(F)(F)c1cc(Cl)ccc1-c1cnc2nc(COc3ccccn3)cn2c1 [Example 145, 6-[4-chloro-2-(trifluoromethyl)phenyl]-2-(2-pyridyloxymethyl)imidazo[1,2-a]pyrimidine] | 0.1 to 0.5 µM
8 | OCc1cc(C(F)(F)F)ccc1-c1cnc2nc(COc3ccccn3)cn2c1 [Example 142, [2-[2-(2-pyridyloxymethyl)imidazo[1,2-a]pyrimidin-6-yl]-5-(trifluoromethyl)phenyl]methanol] | 0.1 to 0.5 µM
9 | Oc1cccc(-c2cnc3nc(COc4ccccc4)cn3c2)c1 [Example 17, 6-(3-hydroxyphenyl)-2-phenoxymethylimidazo[1,2-a]pyrimidine] | 0.5 to 1 µM
10 | Fc1ccnc(OCc2cn3cc(-c4ccc(F)cc4C(F)(F)F)cnc3n2)c1 [Example 125, 2-[(4-fluoro-2-pyridyl)oxymethyl]-6-[4-fluoro-2-(trifluoromethyl)phenyl]imidazo[1,2-a]pyrimidine] | 0.1 to 0.5 µM
11 | Oc1ccccc1-c1cnc2nc(COc3ccccc3)cn2c1 [Example 16, 6-(2-hydroxyphenyl)-2-phenoxymethylimidazo[1,2-a]pyrimidine] | 0.5 to 1 µM
12 | OCc1cc(F)ccc1-c1cnc2nc(COc3ccc(F)cn3)cn2c1 [Example 139, [5-fluoro-2-[2-[(5-fluoro-2-pyridyl)oxymethyl]imidazo[1,2-a]pyrimidin-6-yl]phenyl]methanol] | 0.5 to 1 µM
13 | COc1cc(C#N)ccc1-c1cnc2nc(COc3ccc(F)cc3)cn2c1 [Example 68, 4-[2-[(4-fluorophenoxy)methyl]imidazo[1,2-a]pyrimidin-6-yl]-3-methoxy-benzonitrile] | 0.1 to 0.5 µM
14 | CN(C)c1ccccc1-c1cnc2nc(COc3ccccc3)cn2c1 [Example 14, 6-(2-dimethylaminophenyl)-2-phenoxymethylimidazo[1,2-a]pyrimidine] | 0.1 to 0.5 µM
15 | Fc1cccc(OCc2cn3cc(-c4ccc(F)nc4)cnc3n2)c1 [Example 81, 2-[(3-fluorophenoxy)methyl]-6-(6-fluoro-3-pyridyl)imidazo[1,2-a]pyrimidine] | 0.1 to 0.5 µM
16 | COc1cc(-c2cnc3nc(COc4ccccc4)cn3c2)ccc1F [Example 21, 6-(4-fluoro-3-methoxyphenyl)-2-phenoxymethylimidazo[1,2-a]pyrimidine] | 0.5 to 1 µM
17 | COc1cc(F)ccc1-c1cnc2nc(COc3cccc(F)c3)cn2c1 [Example 42, 6-(4-fluoro-2-methoxyphenyl)-2-(3-fluorophenoxymethyl)imidazo[1,2-a]pyrimidine] | 0.5 to 1 µM

Row | SMILES | EC50
18 | OCc1cc(F)ccc1-c1cnc2nc(COc3ccnc(F)c3)cn2c1 [Example 170, 6-(4-fluoro-2-hydroxymethylphenyl)-2-(2-fluoropyridin-4-yloxymethyl)imidazo[1,2-a]pyrimidine] | 0.1 to 0.5 µM
19 | Cc1ccccc1-c1cnc2nc(COc3ccc(F)cc3)cn2c1 [Example 60, 2-[(4-fluorophenoxy)methyl]6-(o-tolyl)imidazo[1,2-a]pyrimidine] | 0.1 to 0.5 µM
20 | CSc1cc(F)ccc1-c1cnc2nc(COc3ccc(F)cc3)cn2c1 [Example 98, 6-(4-fluoro-2-methylsulfanyl-phenyl)-2-[(4-fluorophenoxy)methyl]imidazo[1,2-a]pyrimidine] | 0.1 to 0.5 µM
21 | Fc1ccc(OCc2cn3cc(-c4ccncc4Cl)cnc3n2)cc1 [Example 49, 6-(3-chloropyridin-4-yl)-2-(4-fluorophenoxymethyl)imidazo[1,2-a]pyrimidine] | 0.5 to 1 µM
22 | Cc1ccc(-c2cnc3nc(COc4ccc(F)cc4)cn3c2)c(F)c1 [Example 64, 6-(2-fluoro-4-methyl-phenyl)-2-[(4-fluorophenoxy)methyl]imidazo[1,2-a]pyrimidine] | 0.5 to 1 µM
23 | Fc1ccc(-c2cnc3nc(COc4ccccc4)cn3c2)c(F)n1 [Example 33, 6-(2,6-difluoropyridin-3-yl)-2-phenoxymethylimidazo[1,2-a]pyrimidine] | 0.1 to 0.5 µM
24 | Cc1ccc(-c2cnc3nc(COc4ccc(F)cc4)cn3c2)c(N)c1 [Example 74, 2-[2-[(4-fluorophenoxy)methyl]imidazo[1,2-a]pyrimidin-6-yl]-5-methyl-aniline] | 0.1 to 0.5 µM
25 | COc1c(F)cccc1-c1cnc2nc(COc3cc(F)ccn3)cn2c1 [Example 121, 6-(3-fluoro-2-methoxy-phenyl)-2-[(4-fluoro-2-pyridyl)oxymethyl)imidazo[1,2-a]pyrimidine] | 0.1 to 0.5 µM
26 | Oc1cc(-c2cnc3nc(COc4cccc(F)c4)cn3c2)ccc1F [Example 43, 6-(4-fluoro-3-hydroxyphenyl)-2-(3-fluorophenoxymethyl)-imidazo[1,2-a]pyrimidine] | 0.1 to 0.5 µM
27 | Fc1ccc(-c2cnc3nc(COc4ccnc(F)c4)cn3n2)c(F)c1 [Example 183, 2-(2,4-difluorophenyl)-6-((2-fluoropyridin-4-yloxy)methyl)imidazo[1,2-b][1,2,4]triazine] | 0.1 to 0.5 µM
28 | Fc1cccc(OCc2cn3cc(-c4cccnc4F)cnc3n2)c1 [Example 82, 2-[(3-fluorophenoxy)methyl]-6-(2-fluoro-3-pyridyl)imidazo[1,2-a]pyrimidine] | 0.1 to 0.5 µM
29 | [2H]c1c([2H])c([2H])c(OCc2cn3cc(-c4ccc(F)cc4)cnc3n2)c([2H])c1[2H] [Example 59, 6-(4-fluorophenyl)-2-[(2,3,4,5,6-pentadeuteriophenoxy)methyl]imidazo[1,2-a]pyrimidine] | 0.1 to 0.5 µM
30 | Fc1ccc(OCc2cn3cc(-c4cnc(F)c(F)c4)cnc3n2)cc1 [Example 83, 6-(5,6-difluoro-3-pyridyl)-2-[(4-fluorophenoxy)methyl]imidazo[1,2-a]pyrimidine] | 0.1 to 0.5 µM
31 | Fc1ccc(OCc2cn3cc(-c4ccnc(F)c4)cnc3n2)cc1 [Example 62, 2-[(4-fluorophenoxy)methyl]-6-(2-fluoro-4-pyridyl)imidazo[1,2-a]pyrimidine] | 0.5 to 1 µM
32 | Fc1cccc(OCc2cn3cc(-c4ccc(F)cc4C(F)(F)F)cnc3n2)c1 [Example 94, 2-[(3-fluorophenoxy)methyl]-6-[4-fluoro-2-(trifluoromethyl)phenyl]imidazo[1,2-a]pyrimidine] | 0.1 to 0.5 µM
33 | Clc1ccc(-c2cnc3nc(COc4ccccc4)cn3c2)cn1 [Example 34, 6-(6-chloropyridin-3-yl)-2-phenoxymethylimidazo[1,2-a]pyrimidine] | 0.1 to 0.5 µM
